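Compound exposure: 48 hours, 5 concentrations, 96-well plates. GI50 = concentration required for 50% inhibition of growth. TGI denotes the concentration required for complete inhibition of growth.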
How the values were obtained:
Experiment in all cases: NCI tumour cell line growth inhibition, 48 h
[1] = tested on: EKVX NSCLC
[2] = tested on: U251 CNS
[3] = tested on: DU-145 prostate
[4] = tested on: NCI-H226 lung
[5] = tested on: M14 melanoma
[6] = tested on: SNB-19 CNS
[7] = tested on: LOX IMVI melanoma
[8] = tested on: BT-549 breast
[9] = tested on: HOP-92 NSCLC
[10] = tested on: MALME-3M melanoma
[11] = tested on: COLO 205 colon
[12] = tested on: CAKI-1 renal
[13] = tested on: OVCAR-3 ovarian
[14] = tested on: K-562 leukemia
[15] = tested on: RXF 393 renal
[16] = tested on: HCT-15 colon
[17] = tested on: A549 NSCLC
[18] = tested on: SK-MEL-28 melanoma
[19] = tested on: PC-3 prostate
[20] = tested on: T-47D breast
[21] = tested on: SN12C renal
[22] = tested on: MCF7 breast
[23] = tested on: HOP-62 NSCLC
[24] = tested on: HCC-2998 colon
[25] = tested on: NCI-H522 lung
[26] = tested on: CCRF-CEM leukemia
[27] = tested on: HT29 colon
[28] = tested on: HS 578T breast
[29] = tested on: TK-10 renal
[30] = tested on: SF-539 CNS
[31] = tested on: MOLT-4 leukemia
[32] = tested on: NCI-H23 lung
[33] = tested on: UACC-257 melanoma
[34] = tested on: SK-MEL-5 melanoma
[35] = tested on: SF-295 CNS
[36] = tested on: A498 renal
[37] = tested on: MDA-MB-231 breast
[38] = tested on: SK-MEL-2 melanoma
[39] = tested on: SK-OV-3 ovarian
[40] = tested on: NCI/ADR-RES ovarian
[41] = tested on: 786-0 renal
[42] = tested on: SF-268 CNS
[43] = tested on: HL-60(TB) leukemia
[44] = tested on: ACHN renal
[45] = tested on: KM12 colon
[46] = tested on: HCT-116 colon
[47] = tested on: NCI-H460 lung
[48] = tested on: SNB-75 CNS
[49] = tested on: OVCAR-5 ovarian
[50] = tested on: OVCAR-4 ovarian
[51] = tested on: SW-620 colon
[52] = tested on: RPMI-8226 leukemia
[53] = tested on: MDA-MB-435
[54] = tested on: OVCAR-8 ovarian
[55] = tested on: UACC-62 melanoma
[56] = tested on: UO-31 renal
[57] = tested on: IGROV1 ovarian

## c1cc2c(cn1)Nc1ccncc1S2
[1]
  GI50: 55.8 µM
  TGI: > 100 µM
[2]
  GI50: 44.6 µM
  TGI: > 100 µM
[3]
  GI50: 44.5 µM
  TGI: > 100 µM
[4]
  GI50: 49.2 µM
  TGI: > 100 µM
[5]
  GI50: 32.6 µM
  TGI: > 100 µM
[6]
  GI50: 39 µM
  TGI: > 100 µM
[7]
  GI50: 33.2 µM
  TGI: > 100 µM
[8]
  GI50: 59.5 µM
  TGI: > 100 µM
[9]
  GI50: 8.52 µM
  TGI: 76.6 µM
[10]
  GI50: > 100 µM
  TGI: > 100 µM
[11]
  GI50: 11.8 µM
  TGI: 59.5 µM
[12]
  GI50: > 100 µM
  TGI: > 100 µM
[13]
  GI50: 83 µM
  TGI: > 100 µM
[14]
  GI50: 55.4 µM
  TGI: > 100 µM
[15]
  GI50: 15.6 µM
  TGI: 42.3 µM
[16]
  GI50: 37.4 µM
  TGI: > 100 µM
[17]
  GI50: 32.8 µM
  TGI: > 100 µM
[18]
  GI50: > 100 µM
  TGI: > 100 µM
[19]
  GI50: 41.7 µM
  TGI: > 100 µM
[20]
  GI50: 34.8 µM
  TGI: > 100 µM
[21]
  GI50: 69.4 µM
  TGI: > 100 µM
[22]
  GI50: 32.9 µM
  TGI: > 100 µM
[23]
  GI50: 14.9 µM
  TGI: 57.4 µM
[24]
  GI50: 49.8 µM
  TGI: > 100 µM
[25]
  GI50: 40.4 µM
  TGI: > 100 µM
[26]
  GI50: 37.3 µM
  TGI: > 100 µM
[27]
  GI50: 58 µM
  TGI: > 100 µM
[28]
  GI50: 29.6 µM
  TGI: > 100 µM
[29]
  GI50: 42.7 µM
  TGI: > 100 µM
[30]
  GI50: 33.8 µM
  TGI: > 100 µM
[31]
  GI50: 33.4 µM
  TGI: > 100 µM
[32]
  GI50: 43.4 µM
  TGI: > 100 µM
[33]
  GI50: 71.5 µM
  TGI: > 100 µM
[34]
  GI50: 36.3 µM
  TGI: > 100 µM
[35]
  GI50: 52.7 µM
  TGI: > 100 µM
[36]
  GI50: 19.5 µM
  TGI: 55.4 µM
[37]
  GI50: 98.9 µM
  TGI: > 100 µM
[38]
  GI50: 35.2 µM
  TGI: > 100 µM
[39]
  GI50: 15.2 µM
  TGI: 80.6 µM
[40]
  GI50: 37.1 µM
  TGI: > 100 µM
[41]
  GI50: 23.7 µM
  TGI: 78.1 µM
[42]
  GI50: 30.5 µM
  TGI: > 100 µM
[43]
  GI50: 20.5 µM
  TGI: 68.5 µM
[44]
  GI50: 26.8 µM
  TGI: > 100 µM
[45]
  GI50: 32.3 µM
  TGI: > 100 µM
[46]
  GI50: 17.9 µM
  TGI: 69.5 µM
[47]
  GI50: 27.8 µM
  TGI: > 100 µM
[48]
  GI50: 43.9 µM
  TGI: > 100 µM
[49]
  GI50: 25.2 µM
  TGI: > 100 µM
[50]
  GI50: > 100 µM
  TGI: > 100 µM
[51]
  GI50: 35.4 µM
  TGI: > 100 µM
[52]
  GI50: 36.3 µM
  TGI: > 100 µM
[53]
  GI50: 73.9 µM
  TGI: > 100 µM
[54]
  GI50: 35.7 µM
  TGI: > 100 µM
[55]
  GI50: 41.9 µM
  TGI: > 100 µM
[56]
  GI50: 23.5 µM
  TGI: > 100 µM

## c1ccc2c3c([nH]c2c1)C(c1ccc(C2NCCc4c2[nH]c2ccccc42)cc1)NCC3 (centres undefined)
[1]
  GI50: 1.42 µM
  TGI: 3.39 µM
[2]
  GI50: 0.321 µM
  TGI: 1.1 µM
[3]
  GI50: 0.749 µM
  TGI: 2.13 µM
[4]
  GI50: 1.96 µM
  TGI: 4.23 µM
[5]
  GI50: 0.403 µM
  TGI: 1.58 µM
[6]
  GI50: 1.73 µM
  TGI: 3.54 µM
[7]
  GI50: 0.196 µM
  TGI: 0.45 µM
[8]
  GI50: 11.1 µM
  TGI: 24.4 µM
[9]
  GI50: 0.731 µM
  TGI: 2.89 µM
[10]
  GI50: 1.55 µM
  TGI: 3.11 µM
[11]
  GI50: 0.204 µM
  TGI: 0.459 µM
[12]
  GI50: 1.66 µM
  TGI: 4.03 µM
[13]
  GI50: 1.24 µM
  TGI: 2.6 µM
[14]
  GI50: 0.244 µM
  TGI: 0.488 µM
[15]
  GI50: 1.31 µM
  TGI: 2.67 µM
[16]
  GI50: 0.429 µM
  TGI: 1.78 µM
[17]
  GI50: 1.1 µM
  TGI: 2.54 µM
[18]
  GI50: 1.68 µM
  TGI: 3.18 µM
[19]
  GI50: 1.27 µM
  TGI: 2.69 µM
[20]
  GI50: 1.31 µM
  TGI: 3.06 µM
[21]
  GI50: 1.47 µM
  TGI: 3.05 µM
[22]
  GI50: 0.393 µM
  TGI: 1.75 µM
[23]
  GI50: 1.31 µM
  TGI: 2.8 µM
[24]
  GI50: 0.274 µM
  TGI: 1.28 µM
[25]
  GI50: 0.414 µM
  TGI: 1.49 µM
[26]
  GI50: 0.452 µM
  TGI: 2.03 µM
[27]
  GI50: 0.28 µM
  TGI: 0.735 µM
[28]
  GI50: 1.43 µM
  TGI: 3.82 µM
[57]
  GI50: 1.34 µM
  TGI: 2.83 µM
[29]
  GI50: 1.98 µM
  TGI: 4.09 µM
[30]
  GI50: 1.62 µM
  TGI: 3.04 µM
[31]
  GI50: 0.378 µM
  TGI: 1.53 µM
[32]
  GI50: 1.65 µM
  TGI: 3.36 µM
[33]
  GI50: 1.91 µM
  TGI: 3.52 µM
[34]
  GI50: 1.7 µM
  TGI: 3.13 µM
[35]
  GI50: 1.62 µM
  TGI: 3.33 µM
[36]
  GI50: 1.64 µM
  TGI: 8.87 µM
[37]
  GI50: 0.296 µM
  TGI: 0.936 µM
[38]
  GI50: 1.7 µM
  TGI: 3.57 µM
[39]
  GI50: 1.88 µM
  TGI: 4.14 µM
[40]
  GI50: 2.1 µM
  TGI: 7.81 µM
[41]
  GI50: 1.75 µM
  TGI: 3.38 µM
[42]
  GI50: 1.12 µM
  TGI: 2.57 µM
[43]
  GI50: 1.13 µM
  TGI: 2.81 µM
[44]
  GI50: 0.713 µM
  TGI: 2 µM
[45]
  GI50: 1.07 µM
  TGI: 2.36 µM
[46]
  GI50: 0.17 µM
  TGI: 0.335 µM
[47]
  GI50: 0.221 µM
  TGI: 0.449 µM
[48]
  GI50: 0.691 µM
  TGI: 2.07 µM
[49]
  GI50: 1.81 µM
  TGI: 4.17 µM
[50]
  GI50: 1.14 µM
  TGI: 2.53 µM
[51]
  GI50: 0.185 µM
  TGI: 0.344 µM
[52]
  GI50: 0.34 µM
  TGI: 1.09 µM
[53]
  GI50: 0.359 µM
  TGI: 1.27 µM
[55]
  GI50: 0.749 µM
  TGI: 2.13 µM
[56]
  GI50: 1.04 µM
  TGI: 2.26 µM

— PubChem BioAssay (NCI)
